The values that follow are results of earlier work, collected in US20160331794A1, “COMPOSITION FOR USE IN THE TREATMENT OF PERSISTENT COUGH” (ABOCA S.P.A SOCIETÁ AGRICOLA, priority 2013, published 2016).

For one data set, the system named is cough. The following applies: Lee et al. 2000; cited from earlier work.
For a further data set, the system named is night cough in children. The conditions noted are these: Yoder et al. 2006; cited from earlier work.

For `COc1ccc2c(c1)[C@]13CCCC[C@@H]1[C@H](C2)N(C)CC3` [dextromethorphan], in the data set on cough, the “efficacy in the treatment of coughs versus placebo” value is listed as “only marginally better than the placebo”. Moreover, the “diminishing night cough in children versus placebo” value with night cough in children is listed as “Neither dextromethorphan nor diphenhydramine have been found to be better than the placebo”.
Take `CN(C)CCOC(c1ccccc1)c1ccccc1` [diphenhydramine]: in the data set with night cough in children, the “diminishing night cough in children versus placebo” value is reported as “Neither dextromethorphan nor diphenhydramine have been found to be better than the placebo”.
